These results are taken from patent publication US9982005B2, “Macrolides and methods of their preparation and use” (President and Fellows of Harvard College, priority 2013, dated 2018).

≈ marks a conversion by molar mass, not a printed value. Like-named read-outs stand apart in the source and are kept apart here.

What all share (format): cell-based
For one experiment, the system named is E. coli strains. The experiment is described as follows: MIC against E. coli strains (Table M7). Conditions: Escherichia coli, ATCC25922, E. coli ATCC 25922. From the text:
(§1) We have collected MIC data for a total of 50 novel macrolides that this platform has produced against over 21 unique strains of B. subtilis, E. coli, S. aureus, S. pneumoniae, and H. influenzae, including several multidrug-resistant strains, with a special focus on macrolide resistant mechanisms (vide supra). Azithromycin was included as a control macrolide. CLSI standard procedures for broth dilution MIC determination were used. […] These genotypes can be constitutive or inducible. The finding that C4-epi (unnatural) isomers of the “azaketolide” macrolide class have enhanced activities relative to C4 natural isomers is very exciting.

A further experiment deals with S. aureus strains. In words: MIC against S. aureus strains (Table M7). Conditions: Staphylococcus aureus.
Text: as §1

A further experiment relates to S. pneumoniae strains. The experiment is described as follows: MIC against S. pneumoniae strains (Tables M7, M8). The settings on record: for MIC: Streptococcus pneumoniae. An excerpt: CLSI standard procedures for broth dilution MIC determination were used. […] These genotypes can be constitutive or inducible.
Another experiment deals with E. faecalis strains. In words: MIC against E. faecalis strains (Table M8). Conditions: Enterococcus faecalis, E. faecalis 29212.
For a further experiment, the system named is A. baumannii strains. The experiment is described as follows: MIC against A. baumannii strains (Table M8). Conditions: Acinetobacter baumannii, BAA747, A. baumannii BAA747-1.
The subject of the next experiment is K. pneumoniae strains. The experiment is described as follows: MIC against K. pneumoniae strains (Table M8). The settings on record: Klebsiella pneumoniae, K. pneumoniae 10031.
The subject of a further experiment is H. influenzae strains. In words: MIC against H. influenzae strains (Table M8). Conditions: Haemophilus influenzae.
Text: as §1

Setting [1] is: ATCC29213, S. aureus ATCC 29213, read-out: MIC S. aureus (ATCC 29213).
Setting [2] is: S. aureus 183, read-out: MIC S. aureus (183).
Setting [3] is: S. aureus 506, read-out: MIC S. aureus (506).
Setting [4] is: S. aureus 1708, read-out: MIC S. aureus (1708).
The mark [5] stands for this setting: USA300, S. aureus USA300, read-out: MIC S. aureus (USA300).
The mark [6] stands for this setting: S. pneumoniae 160, read-out: MIC S. pneumonae (160).
[7] abbreviates: S. pneumoniae 1509, read-out: MIC S. pneumoniae (1509).
[8] abbreviates: S. pneumoniae 1533, read-out: MIC S. pneumoniae (1533).
Where [9] appears, read: S. pneumoniae 1537, read-out: MIC S. pneumoniae (1537).
Where [10] appears, read: S. pneumoniae 49619, read-out: MIC S. pneumoniae (49619).
Where [11] appears, read: H. influenzae 49247, read-out: MIC H. influenzae (49247).
Setting [12] is: H. influenzae 49766, read-out: MIC H. influenzae (49766).

Regarding `C=CC[C@@H]1[C@H]2N(CCCCn3cc(-c4cccc(N)c4)nn3)C(=O)O[C@]2(C)[C@@H](CC)OC(=O)[C@H](C)C(=O)[C@H](C)[C@@H](O[C@@H]2OC(C)CC(N(C)C)C2O)[C@](C)(OC)C[C@@H](C)CN1C` (some centres unmarked) [FSM-11094], the MIC was above 32 µg/mL in the experiment with E. coli strains; 8 µg/mL (≈ 9.22 µM) with S. aureus strains (setting [1]); above 32 µg/mL in the experiment on S. aureus strains (setting [2]); above 32 µg/mL with S. aureus strains (setting [3]); 16 µg/mL (≈ 18.4 µM) in the experiment on S. aureus strains (setting [4]); 8 µg/mL (≈ 9.22 µM) with S. aureus strains (setting [5]). The MIC is 1 µg/mL (≈ 1.15 µM) with S. pneumoniae strains (setting [6]); above 32 µg/mL in the experiment on S. pneumoniae strains (setting [7]); above 32 µg/mL in the experiment on S. pneumoniae strains (setting [8]); above 32 µg/mL with S. pneumoniae strains (setting [9]); 2 µg/mL (≈ 2.3 µM) with S. pneumoniae strains (setting [10]); 4 µg/mL (≈ 4.61 µM) in the experiment on E. faecalis strains. The MIC with A. baumannii strains was above 32 µg/mL; with K. pneumoniae strains, 16 µg/mL (≈ 18.4 µM); in the experiment with H. influenzae strains (setting [11]), 8 µg/mL (≈ 9.22 µM); in the experiment on H. influenzae strains (setting [12]), 16 µg/mL (≈ 18.4 µM).
In the case of `C=CC[C@@]1(OC)C[C@@H](C)CN[C@H](C)[C@H]2N(CCCCn3cc(-c4cccc(N)c4)nn3)C(=O)O[C@]2(C)[C@@H](CC)OC(=O)[C@H](C)C(=O)[C@@H](C)[C@H]1O[C@@H]1OC(C)CC(N(C)C)C1O` (some centres unmarked) [FSM-21367], the MIC against E. coli strains is 4 µg/mL (≈ 4.68 µM); in the experiment on S. aureus strains (setting [1]), 8 µg/mL (≈ 9.37 µM); in the experiment on S. aureus strains (setting [2]), above 32 µg/mL; in the experiment on S. aureus strains (setting [3]), above 32 µg/mL; with S. aureus strains (setting [4]), 16 µg/mL (≈ 18.7 µM); in the experiment with S. aureus strains (setting [5]), 8 µg/mL (≈ 9.37 µM). In addition, the MIC is 0.125 µg/mL (≈ 0.146 µM) with S. pneumoniae strains (setting [6]); 8 µg/mL (≈ 9.37 µM) in the experiment on S. pneumoniae strains (setting [7]); above 32 µg/mL in the experiment on S. pneumoniae strains (setting [8]); above 32 µg/mL in the experiment with S. pneumoniae strains (setting [9]); 2 µg/mL (≈ 2.34 µM) against E. faecalis strains; 16 µg/mL (≈ 18.7 µM) against A. baumannii strains. Moreover, the MIC with K. pneumoniae strains was 4 µg/mL (≈ 4.68 µM); with H. influenzae strains (setting [11]) it was 1 µg/mL (≈ 1.17 µM); with H. influenzae strains (setting [12]) it was 4 µg/mL (≈ 4.68 µM). Moreover, the “MIC S. pneumoniae (49619)” value against S. pneumoniae strains (S. pneumoniae 49619) was 0.25 µg/mL (≈ 0.293 µM).
Take `CC[C@H]1OC(=O)[C@H](C)C(=O)[C@H](C)[C@@H](O[C@@H]2OC(C)CC(N(C)C)C2O)[C@](C)(OC)C[C@@H](C)CNC[C@H]2N(CCCCn3cc(-c4cccc(N)c4)nn3)C(=O)O[C@]12C` (some centres unmarked) [FSM-11031]: the MIC in the experiment on E. coli strains is 16 µg/mL (≈ 19.7 µM); with S. aureus strains (setting [1]), 2 µg/mL (≈ 2.46 µM); in the experiment on S. aureus strains (setting [2]), above 32 µg/mL; in the experiment on S. aureus strains (setting [3]) it was above 32 µg/mL; with S. aureus strains (setting [4]), 1 µg/mL (≈ 1.23 µM); in the experiment with S. aureus strains (setting [5]), 4 µg/mL (≈ 4.91 µM). Further, the MIC was 0.25 µg/mL (≈ 0.307 µM) with S. pneumoniae strains (setting [6]); 1 µg/mL (≈ 1.23 µM) in the experiment with S. pneumoniae strains (setting [7]); above 32 µg/mL in the experiment on S. pneumoniae strains (setting [8]); above 32 µg/mL in the experiment with S. pneumoniae strains (setting [9]); 0.25 µg/mL (≈ 0.307 µM) in the experiment with S. pneumoniae strains (setting [10]); 0.25 µg/mL (≈ 0.307 µM) against E. faecalis strains. For the same molecule, the MIC against A. baumannii strains came out at 16 µg/mL (≈ 19.7 µM); against K. pneumoniae strains it was 4 µg/mL (≈ 4.91 µM); with H. influenzae strains (setting [11]), 2 µg/mL (≈ 2.46 µM); in the experiment with H. influenzae strains (setting [12]) it was 4 µg/mL (≈ 4.91 µM).
In the case of `CC[C@H]1OC(=O)C(C)C(=O)[C@H](C)[C@@H](O[C@@H]2OC(C)CC(N(C)C)C2O)[C@](C)(OC)C[C@@H](C)C(=O)N[C@H](C)[C@H]2N(CCCCn3cc(-c4cccc(N)c4)nn3)C(=O)O[C@]12C` (some centres unmarked) [FSM-21344], the MIC in the experiment with E. coli strains, with S. aureus strains (setting [1]), with S. aureus strains (setting [2]), with S. aureus strains (setting [3]), in the experiment on S. aureus strains (setting [4]) and in the experiment on S. aureus strains (setting [5]) was above 32 µg/mL each time. Moreover, the MIC in the experiment with S. pneumoniae strains (setting [6]) is 8 µg/mL (≈ 9.5 µM); with S. pneumoniae strains (setting [7]), 4 µg/mL (≈ 4.75 µM); in the experiment with S. pneumoniae strains (setting [8]), above 32 µg/mL; with S. pneumoniae strains (setting [9]) it was above 32 µg/mL; in the experiment with S. pneumoniae strains (setting [10]), 0.5 µg/mL (≈ 0.594 µM); against E. faecalis strains, 16 µg/mL (≈ 19 µM). Further, the MIC is above 32 µg/mL against A. baumannii strains, 16 µg/mL (≈ 19 µM) in the experiment with K. pneumoniae strains, 8 µg/mL (≈ 9.5 µM) in the experiment on H. influenzae strains (setting [11]) and 32 µg/mL (≈ 38 µM) in the experiment with H. influenzae strains (setting [12]).
With `C=CC[C@H]1NC[C@H](C)C[C@@](C)(OC)[C@H](O[C@@H]2OC(C)CC(N(C)C)C2O)[C@@H](C)C(=O)[C@@H](C)C(=O)O[C@H](CC)[C@@]2(C)OC(=O)N(CCCCn3cc(-c4cccc(N)c4)nn3)[C@H]12` (some centres unmarked) [FSM-11044], the MIC was 32 µg/mL (≈ 37.5 µM) against E. coli strains; 1 µg/mL (≈ 1.17 µM) in the experiment with S. aureus strains (setting [1]); above 32 µg/mL in the experiment with S. aureus strains (setting [2]); above 32 µg/mL in the experiment with S. aureus strains (setting [3]); 1 µg/mL (≈ 1.17 µM) in the experiment with S. aureus strains (setting [4]); 1 µg/mL (≈ 1.17 µM) in the experiment on S. aureus strains (setting [5]). The MIC in the experiment on S. pneumoniae strains (setting [6]) was 0.125 µg/mL (≈ 0.146 µM); in the experiment on S. pneumoniae strains (setting [7]), 1 µg/mL (≈ 1.17 µM); with S. pneumoniae strains (setting [8]), above 32 µg/mL; with S. pneumoniae strains (setting [9]), above 32 µg/mL; in the experiment with S. pneumoniae strains (setting [10]) it was 0.125 µg/mL (≈ 0.146 µM); with E. faecalis strains it was 0.25 µg/mL (≈ 0.293 µM). The MIC in the experiment with A. baumannii strains is 32 µg/mL (≈ 37.5 µM); in the experiment on K. pneumoniae strains, 8 µg/mL (≈ 9.37 µM); in the experiment with H. influenzae strains (setting [11]), 2 µg/mL (≈ 2.34 µM); in the experiment on H. influenzae strains (setting [12]) it was 8 µg/mL (≈ 9.37 µM).
